Source: ChEMBL document CHEMBL5523738, “Lipid Trolling to Optimize A3 Adenosine Receptor-Positive Allosteric Modulators (PAMs)” (J Med Chem, 2024)
The source made the active and inactive calls. No cut-off for these calls is given here.

Legend:
[1] = target: Alpha-1A adrenergic receptor (Homo sapiens) (UniProt P35348); assay: Binding affinity to alpha1A adrenergic receptor (unknown origin)
[2] = target: 5-hydroxytryptamine receptor 3A (Homo sapiens) (UniProt P46098); assay: Binding affinity to 5-HT3 (unknown origin)
[3] = target: Muscarinic acetylcholine receptor M4 (Homo sapiens) (UniProt P08173); assay: Binding affinity to M4 receptor (unknown origin)
[4] = target: Delta-type opioid receptor (Homo sapiens) (UniProt P41143); assay: Binding affinity to DOR (unknown origin)
[5] = target: T1, Adenosine receptor A3 (Mus musculus) (UniProt Q61618); assay: Orthosteric antagonist activity at full length mouse A3 adenosine receptor transfected in HEK293 cell membranes assessed as inhibition of [125I]I-AB-MECA binding at equilibrium at 10 uM by gamma counter method; conditions: Membrane, filed as antagonist
T1 sequence (whole entry): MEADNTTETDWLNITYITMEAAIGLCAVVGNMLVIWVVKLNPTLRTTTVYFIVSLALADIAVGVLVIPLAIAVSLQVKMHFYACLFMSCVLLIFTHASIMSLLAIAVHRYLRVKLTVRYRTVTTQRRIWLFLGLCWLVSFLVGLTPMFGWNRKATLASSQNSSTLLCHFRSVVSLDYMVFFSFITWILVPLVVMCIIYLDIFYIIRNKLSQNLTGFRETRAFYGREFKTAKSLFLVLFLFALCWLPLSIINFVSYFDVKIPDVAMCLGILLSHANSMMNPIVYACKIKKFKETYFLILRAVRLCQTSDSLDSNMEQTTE

[6] = target: Mu-type opioid receptor (Homo sapiens) (UniProt P35372); assay: Binding affinity to MOR (unknown origin)
[7] = target: 5-hydroxytryptamine receptor 1E (Homo sapiens) (UniProt P28566); assay: Binding affinity to 5-HT1E (unknown origin)
[8] = target: Histamine H2 receptor (Homo sapiens) (UniProt P25021); assay: Binding affinity to histamine H2 receptor (unknown origin)
[9] = target: Beta-3 adrenergic receptor (Homo sapiens) (UniProt P13945); assay: Binding affinity to beta3 adrenergic receptor (unknown origin)
[10] = target: Kappa-type opioid receptor (Homo sapiens) (UniProt P41145); assay: Binding affinity to KOR (unknown origin)
[11] = target: Beta-2 adrenergic receptor (Homo sapiens) (UniProt P07550); assay: Binding affinity to beta2 adrenergic receptor (unknown origin)
[12] = target: D(2) dopamine receptor (Homo sapiens) (UniProt P14416); assay: Binding affinity to D2 receptor (unknown origin)
[13] = target: 5-hydroxytryptamine receptor 5A (Homo sapiens) (UniProt P47898); assay: Binding affinity to 5-HT5A (unknown origin)
[14] = target: Alpha-1D adrenergic receptor (Homo sapiens) (UniProt P25100); assay: Binding affinity to alpha1D adrenergic receptor (unknown origin)
[15] = target: Muscarinic acetylcholine receptor M2 (Homo sapiens) (UniProt P08172); assay: Binding affinity to M2 receptor (unknown origin)
[16] = target: D(1A) dopamine receptor (Homo sapiens) (UniProt P21728); assay: Binding affinity to D1 receptor (unknown origin)
[17] = target: Muscarinic acetylcholine receptor M1 (Homo sapiens) (UniProt P11229); assay: Binding affinity to M1 receptor (unknown origin)
Homo sapiens = species: Homo sapiens; assay: Binding affinity to BZP receptor (unknown origin)
[18] = target: T1, Adenosine receptor A3 (Mus musculus); assay: (§1) Positive allosteric modulation of full length mouse A3 adenosine receptor transfected in HEK293 cell membranes assessed as slow down of [125I]I-AB-MECA dissociation rate at 10 uM preincubated with radioligand for 3 hrs followed by NECA and compound addition and measured upto 180 mins by gamma counter method; conditions: Membrane, filed as positive allosteric modulator
[19] = target: GABA-A receptor; anion channel (Homo sapiens) (UniProt P14867+P47870+P18507+P28472+P48169+Q99928+Q9UN88+P34903+O00591+O14764+Q8N1C3+P18505+P78334+P47869+P31644+Q16445); assay: Binding affinity to GABA-A receptor (unknown origin); assay type: protein-complex assay
[20] = target: T2, Adenosine receptor A3 (Homo sapiens) (UniProt P0DMS8); assay: Positive allosteric modulation of human A3 adenosine receptor transfected in HEK293 cell membranes assessed as potentiation of 5-(2-chloro-6-((3-iodobenzyl)amino)-9H-purin-9-yl)-3,4-dihydroxy-N-methyltetrahydrofuran-2-carboxamide induced [35S]GTP-gammaS binding by measuring fold increase in agonist …; conditions: Membrane, filed as positive allosteric modulator, dose 1.0 µM, time 3.0 hrs
T2 sequence (whole entry): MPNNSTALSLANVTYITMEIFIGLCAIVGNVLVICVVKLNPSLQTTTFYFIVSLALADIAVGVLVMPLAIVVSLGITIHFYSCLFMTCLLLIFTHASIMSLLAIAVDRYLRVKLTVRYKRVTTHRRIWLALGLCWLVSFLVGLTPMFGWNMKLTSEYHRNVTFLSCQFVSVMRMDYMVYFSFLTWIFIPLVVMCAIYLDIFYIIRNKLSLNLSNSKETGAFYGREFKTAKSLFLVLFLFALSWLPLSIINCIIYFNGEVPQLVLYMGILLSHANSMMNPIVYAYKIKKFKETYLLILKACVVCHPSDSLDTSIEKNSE

[21] = target: T2, Adenosine receptor A3 (Homo sapiens); assay: Positive allosteric modulation of human A3 adenosine receptor transfected in HEK293 cell membranes assessed as slow down of [125I]I-AB-MECA dissociation rate at 10 uM preincubated with radioligand for 3 hrs followed by NECA and compound addition and measured after 60 mins by gamma counter method; conditions: Membrane, filed as positive allosteric modulator
[22] = target: T2, Adenosine receptor A3 (Homo sapiens); assay: (§2) Antagonist activity at human A3 adenosine receptor transfected in HEK293 cell membranes assessed as rightward shift in 5-(2-chloro-6-((3-iodobenzyl)amino)-9H-purin-9-yl)-3,4-dihydroxy-N-methyltetrahydrofuran-2-carboxamide activation curve pretreated for 1 hr followed by agonist addition and measured after 2 hrs by liquid scintillation counting method; assay type: functional; conditions: Membrane, filed as antagonist, time 3.0 hrs
[23] = target: T2, Adenosine receptor A3 (Homo sapiens); assay: Orthosteric antagonist activity at human A3 adenosine receptor transfected in HEK293 cell membranes assessed as inhibition of [125I]I-AB-MECA binding at equilibrium at 10 uM measured for 18 hrs by gamma counter method; conditions: Membrane, filed as antagonist
[24] = target: T2, Adenosine receptor A3 (Homo sapiens); assay: as §2, with “curve at 10 uM” for “curve”; assay type: functional; conditions: Membrane, time 3.0 hrs
[25] = target: T2, Adenosine receptor A3 (Homo sapiens); assay: (§3) Positive allosteric modulation of human A3 adenosine receptor transfected in HEK293 cell membranes assessed as potentiation of 5-(2-chloro-6-((3-iodobenzyl)amino)-9H-purin-9-yl)-3,4-dihydroxy-N-methyltetrahydrofuran-2-carboxamide induced [35S]GTP-gammaS binding by measuring maximal efficacy of agonist at 0.01 uM pretreated for 1 hr followed by agonist addition and measured after 2 hrs by liquid scintillation counting method (reference value: 100 +/- 3%); conditions: Membrane, filed as positive allosteric modulator, time 3.0 hrs
[26] = target: T2, Adenosine receptor A3 (Homo sapiens); assay: Positive allosteric modulation of human A3 adenosine receptor transfected in HEK293 cell membranes assessed as potentiation of MRS5698 induced inhibition of cAMP formation by measuring maximal efficacy of agonist at 3 uM (reference value: 100%); assay type: functional; conditions: Membrane, filed as positive allosteric modulator
[27] = target: T2, Adenosine receptor A3 (Homo sapiens); assay: Positive allosteric modulation of human A3 adenosine receptor transfected in HEK293 cell membranes assessed as potentiation of NECA induced ERK activation at 3 uM; conditions: Membrane
[28] = target: T2, Adenosine receptor A3 (Homo sapiens); assay: as §3, with “0.001” for “0.01”; conditions: Membrane, filed as positive allosteric modulator, time 3.0 hrs
[29] = target: Adenosine receptor A1 (Homo sapiens) (UniProt P30542); assay: Positive allosteric modulation of human A1 adenosine receptor transfected in HEK293 cells assessed as potentiation of […] induced inhibition of cAMP formation at 3 uM; assay type: functional, cell-based
[30] = target: T2, Adenosine receptor A3 (Homo sapiens); assay: Positive allosteric modulation of human A3 adenosine receptor transfected in HEK293 cell membranes assessed as potentiation of MRS5698 induced ERK activation at 3 uM; conditions: Membrane
[31] = target: T1, Adenosine receptor A3 (Mus musculus); assay: as §1, with “reduction in” for “slow down of”, “0.1” for “10”; conditions: Membrane
[32] = target: T1, Adenosine receptor A3 (Mus musculus); assay: as §1, with “assessed as reduction in [125I]I-AB-MECA dissociation” for “assessed as slow down of [125I]I-AB-MECA dissociation”, “rate at 1 to 10 uM” for “rate at 10 uM”; conditions: Membrane, filed as positive allosteric modulator, dose 1-10 µM
[33] = target: T2, Adenosine receptor A3 (Homo sapiens); assay: Positive allosteric modulation of human A3 adenosine receptor transfected in HEK293 cell membranes assessed as potentiation of MRS5698 induced inhibition of cAMP formation by measuring fold increase in agonist potency at 3 uM relative to control; assay type: functional; conditions: Membrane, filed as positive allosteric modulator

Sequence of 5-hydroxytryptamine receptor 1E (Homo sapiens) (P28566 whole entry): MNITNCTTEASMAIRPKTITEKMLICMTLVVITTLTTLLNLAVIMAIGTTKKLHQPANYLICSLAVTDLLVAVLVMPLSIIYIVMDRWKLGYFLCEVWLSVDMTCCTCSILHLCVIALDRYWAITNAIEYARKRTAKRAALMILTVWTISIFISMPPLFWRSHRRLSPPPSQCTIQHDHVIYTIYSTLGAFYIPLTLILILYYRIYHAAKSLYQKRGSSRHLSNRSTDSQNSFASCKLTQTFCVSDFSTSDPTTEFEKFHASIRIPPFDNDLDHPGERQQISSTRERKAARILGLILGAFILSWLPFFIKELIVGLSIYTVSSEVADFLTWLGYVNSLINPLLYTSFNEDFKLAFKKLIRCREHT
Sequence of D(1A) dopamine receptor (Homo sapiens) (P21728 whole entry): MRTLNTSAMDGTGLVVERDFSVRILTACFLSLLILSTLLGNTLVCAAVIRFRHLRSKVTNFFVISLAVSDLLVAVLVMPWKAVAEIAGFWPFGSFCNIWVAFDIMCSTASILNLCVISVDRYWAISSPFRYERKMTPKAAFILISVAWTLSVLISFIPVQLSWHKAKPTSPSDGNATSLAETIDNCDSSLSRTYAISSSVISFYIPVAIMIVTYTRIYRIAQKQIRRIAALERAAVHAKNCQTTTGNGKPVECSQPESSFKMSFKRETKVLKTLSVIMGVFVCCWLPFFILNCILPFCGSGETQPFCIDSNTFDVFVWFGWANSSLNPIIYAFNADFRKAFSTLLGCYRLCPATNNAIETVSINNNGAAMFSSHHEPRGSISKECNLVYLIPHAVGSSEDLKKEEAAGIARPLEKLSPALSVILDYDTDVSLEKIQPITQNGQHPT
Sequence of Muscarinic acetylcholine receptor M2 (Homo sapiens) (P08172 whole entry): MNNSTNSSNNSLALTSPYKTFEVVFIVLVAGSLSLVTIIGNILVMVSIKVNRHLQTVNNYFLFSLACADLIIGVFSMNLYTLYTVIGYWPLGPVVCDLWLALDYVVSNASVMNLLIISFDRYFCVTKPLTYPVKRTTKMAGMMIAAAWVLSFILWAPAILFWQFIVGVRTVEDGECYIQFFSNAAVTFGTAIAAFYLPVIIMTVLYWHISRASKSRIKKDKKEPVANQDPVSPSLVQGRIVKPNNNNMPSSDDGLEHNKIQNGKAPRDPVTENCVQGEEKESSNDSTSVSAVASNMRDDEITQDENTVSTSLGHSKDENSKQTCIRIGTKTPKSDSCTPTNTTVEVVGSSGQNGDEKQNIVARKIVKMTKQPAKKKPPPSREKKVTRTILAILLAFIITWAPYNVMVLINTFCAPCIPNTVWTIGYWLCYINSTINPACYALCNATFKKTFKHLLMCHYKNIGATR
Sequence of Alpha-1A adrenergic receptor (Homo sapiens) (P35348 whole entry): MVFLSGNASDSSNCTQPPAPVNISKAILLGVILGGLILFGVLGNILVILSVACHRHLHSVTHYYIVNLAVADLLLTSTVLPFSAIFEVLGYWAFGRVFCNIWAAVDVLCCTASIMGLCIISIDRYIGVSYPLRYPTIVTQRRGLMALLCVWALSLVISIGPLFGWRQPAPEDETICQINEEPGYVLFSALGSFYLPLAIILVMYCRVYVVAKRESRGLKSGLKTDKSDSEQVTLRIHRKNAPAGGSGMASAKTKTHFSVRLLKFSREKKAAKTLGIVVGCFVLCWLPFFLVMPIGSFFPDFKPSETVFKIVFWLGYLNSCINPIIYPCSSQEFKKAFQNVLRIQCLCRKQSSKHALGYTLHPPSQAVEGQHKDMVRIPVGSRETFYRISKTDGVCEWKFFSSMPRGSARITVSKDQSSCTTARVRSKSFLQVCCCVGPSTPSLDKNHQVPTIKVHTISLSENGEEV
Sequence of Alpha-1D adrenergic receptor (Homo sapiens) (P25100 whole entry): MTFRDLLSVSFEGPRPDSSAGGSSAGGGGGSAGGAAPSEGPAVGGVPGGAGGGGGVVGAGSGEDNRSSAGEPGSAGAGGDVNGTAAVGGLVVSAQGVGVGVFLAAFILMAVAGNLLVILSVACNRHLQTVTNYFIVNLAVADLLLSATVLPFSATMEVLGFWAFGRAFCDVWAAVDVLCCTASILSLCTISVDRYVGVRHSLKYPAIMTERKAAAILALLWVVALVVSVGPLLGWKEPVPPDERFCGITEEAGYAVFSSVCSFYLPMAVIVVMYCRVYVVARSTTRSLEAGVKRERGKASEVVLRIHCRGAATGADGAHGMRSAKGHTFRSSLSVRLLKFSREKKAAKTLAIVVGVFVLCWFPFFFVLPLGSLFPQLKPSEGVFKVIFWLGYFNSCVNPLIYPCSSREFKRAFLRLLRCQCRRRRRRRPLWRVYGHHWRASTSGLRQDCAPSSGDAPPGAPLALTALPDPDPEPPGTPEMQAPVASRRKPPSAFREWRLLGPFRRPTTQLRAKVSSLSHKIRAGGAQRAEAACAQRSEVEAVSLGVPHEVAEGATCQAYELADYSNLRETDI
Sequence of 5-hydroxytryptamine receptor 5A (Homo sapiens) (P47898 whole entry): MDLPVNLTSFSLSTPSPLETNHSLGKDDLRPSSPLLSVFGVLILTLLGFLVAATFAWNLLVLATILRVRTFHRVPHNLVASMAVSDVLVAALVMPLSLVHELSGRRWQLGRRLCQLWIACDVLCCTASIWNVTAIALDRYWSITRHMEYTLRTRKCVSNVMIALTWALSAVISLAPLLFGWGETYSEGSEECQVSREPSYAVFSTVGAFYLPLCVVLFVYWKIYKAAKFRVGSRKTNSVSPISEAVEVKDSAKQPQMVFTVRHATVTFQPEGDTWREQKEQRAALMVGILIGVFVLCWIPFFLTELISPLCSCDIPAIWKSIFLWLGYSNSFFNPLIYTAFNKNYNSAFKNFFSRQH
Sequence of Muscarinic acetylcholine receptor M1 (Homo sapiens) (P11229 whole entry): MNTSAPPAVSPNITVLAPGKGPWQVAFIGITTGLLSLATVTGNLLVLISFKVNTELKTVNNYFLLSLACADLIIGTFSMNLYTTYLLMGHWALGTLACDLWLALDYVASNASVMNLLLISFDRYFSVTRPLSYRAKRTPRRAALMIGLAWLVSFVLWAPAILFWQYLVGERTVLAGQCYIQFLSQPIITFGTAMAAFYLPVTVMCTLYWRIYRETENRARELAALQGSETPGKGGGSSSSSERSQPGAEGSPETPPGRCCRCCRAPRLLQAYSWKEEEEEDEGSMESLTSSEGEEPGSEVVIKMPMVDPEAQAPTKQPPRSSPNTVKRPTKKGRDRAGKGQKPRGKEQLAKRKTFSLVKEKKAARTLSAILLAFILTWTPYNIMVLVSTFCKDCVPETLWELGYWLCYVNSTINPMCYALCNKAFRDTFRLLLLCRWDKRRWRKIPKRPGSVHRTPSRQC
Sequence of Histamine H2 receptor (Homo sapiens) (P25021 whole entry): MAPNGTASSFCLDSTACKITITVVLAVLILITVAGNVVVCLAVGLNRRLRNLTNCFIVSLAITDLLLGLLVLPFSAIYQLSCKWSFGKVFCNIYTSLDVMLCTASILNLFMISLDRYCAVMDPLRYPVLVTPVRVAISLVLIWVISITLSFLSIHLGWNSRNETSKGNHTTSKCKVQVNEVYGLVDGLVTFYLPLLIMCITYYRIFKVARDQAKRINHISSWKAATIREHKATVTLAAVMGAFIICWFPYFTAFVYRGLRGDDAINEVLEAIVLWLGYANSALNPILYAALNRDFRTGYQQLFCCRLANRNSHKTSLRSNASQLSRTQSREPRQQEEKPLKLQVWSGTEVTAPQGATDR
Sequence of Beta-2 adrenergic receptor (Homo sapiens) (P07550 whole entry, looked up): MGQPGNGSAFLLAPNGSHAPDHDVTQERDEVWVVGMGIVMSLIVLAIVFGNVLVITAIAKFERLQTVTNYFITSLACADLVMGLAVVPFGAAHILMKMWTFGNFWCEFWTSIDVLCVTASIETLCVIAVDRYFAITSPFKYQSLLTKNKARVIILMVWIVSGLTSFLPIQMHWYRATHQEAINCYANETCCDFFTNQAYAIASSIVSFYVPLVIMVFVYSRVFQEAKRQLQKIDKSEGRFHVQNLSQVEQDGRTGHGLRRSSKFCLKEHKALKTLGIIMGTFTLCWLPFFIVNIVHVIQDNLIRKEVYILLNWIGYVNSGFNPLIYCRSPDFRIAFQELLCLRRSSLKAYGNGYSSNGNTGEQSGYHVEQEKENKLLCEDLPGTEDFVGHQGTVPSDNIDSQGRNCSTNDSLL
Sequence of Mu-type opioid receptor (Homo sapiens) (P35372 whole entry): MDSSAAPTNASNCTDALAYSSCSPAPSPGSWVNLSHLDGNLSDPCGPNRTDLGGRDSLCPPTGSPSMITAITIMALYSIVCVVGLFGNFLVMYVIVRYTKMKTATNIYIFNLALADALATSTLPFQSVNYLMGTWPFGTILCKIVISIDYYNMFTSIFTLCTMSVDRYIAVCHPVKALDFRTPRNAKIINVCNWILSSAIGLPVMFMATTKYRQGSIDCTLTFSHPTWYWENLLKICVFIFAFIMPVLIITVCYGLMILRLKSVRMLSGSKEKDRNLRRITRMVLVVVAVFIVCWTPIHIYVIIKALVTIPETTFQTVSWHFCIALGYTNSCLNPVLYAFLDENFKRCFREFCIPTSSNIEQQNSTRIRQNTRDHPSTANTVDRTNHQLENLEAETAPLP
Sequence of Beta-3 adrenergic receptor (Homo sapiens) (P13945 whole entry, looked up): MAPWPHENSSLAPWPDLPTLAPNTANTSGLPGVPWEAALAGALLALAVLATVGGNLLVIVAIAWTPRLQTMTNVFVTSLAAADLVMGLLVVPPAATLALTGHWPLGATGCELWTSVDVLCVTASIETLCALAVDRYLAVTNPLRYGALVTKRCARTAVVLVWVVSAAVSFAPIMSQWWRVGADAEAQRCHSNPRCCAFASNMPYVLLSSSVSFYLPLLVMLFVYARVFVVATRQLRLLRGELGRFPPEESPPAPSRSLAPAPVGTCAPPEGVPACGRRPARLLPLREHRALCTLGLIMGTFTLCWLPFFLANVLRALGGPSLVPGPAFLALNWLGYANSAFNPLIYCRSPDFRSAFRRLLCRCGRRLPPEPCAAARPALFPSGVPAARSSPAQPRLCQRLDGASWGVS

CCCC(CCC)c1nc2c(Nc3ccc(C#CCCCCCCCCCN)cc3)nc3ccccc3c2[nH]1
Activity [1]: inactive | Activity [2]: inactive | Activity [3]: inactive | Activity [4]: inactive | Activity [5]: Active | Activity [6]: inactive | Activity [7]: inactive | Activity [8]: inactive | Activity [9]: inactive | Activity [10]: inactive | Activity [11]: inactive | Activity [12]: inactive | Activity [13]: inactive | Activity [14]: inactive | Activity [15]: inactive | Activity [16]: inactive | Activity [17]: inactive | Activity (Homo sapiens): inactive | Activity [18]: Active | Activity [19]: inactive | fold change (FC) [20]: 4

Clc1ccc(Nc2nc3ccccc3c3nc(C4CCCCC4)sc23)cc1Cl
Activity [21]: Active | Activity [22]: Active

CCCC(CCC)c1nc2c(Nc3ccc(C#CCN)cc3)nc3ccccc3c2[nH]1
Activity [18]: Active

CCCC(CCC)c1nc2c(Nc3ccc(C#CCCN)cc3)nc3ccccc3c2[nH]1
Activity [18]: Active

CCCC(CCC)c1nc2c(Nc3ccc(C#CCCCCCN)cc3)nc3ccccc3c2[nH]1
Activity [5]: Active | Activity [18]: Active

CCCC(CCC)c1nc2c(Nc3ccc(/C=C/C(=O)NCCCCCCCCN)cc3)nc3ccccc3c2[nH]1
Activity [23]: Active | Activity [21]: Active

CCCC(CCC)c1nc2c(Nc3ccc(I)cc3)nc3ccccc3c2n1Cc1ccccc1
Activity [23]: Active | fold change (FC) [20]: 2.5

Clc1ccc(Nc2nc3ccccc3c3sc(C4CCCCC4)nc23)cc1Cl
Activity [24]: inactive

CCCC(CCC)c1nc2c(Nc3ccc(C#CCCCCCCCCN)cc3)nc3ccccc3c2[nH]1
Activity [1]: inactive | Activity [2]: inactive | Activity [3]: inactive | Activity [4]: inactive | Activity [5]: Active | Activity [6]: inactive | Emax [25]: 157% | Activity [7]: inactive | Activity [8]: inactive | Emax [26]: 117% | Activity [9]: inactive | Activity [21]: Active | Activity [10]: inactive | Activity [27]: inactive | Emax [28]: 112% | Activity [11]: inactive | Activity [12]: inactive | Activity [13]: inactive | Activity [14]: inactive | Activity [15]: inactive | Activity [29]: inactive | Activity [16]: inactive | Activity [17]: inactive | Activity (Homo sapiens): inactive | Activity [30]: inactive | Activity [31]: inactive | Activity [19]: inactive | fold change (FC) [20]: 4 | Activity [32]: Active | fold change (FC) [33]: 9

CN(c1ccc(Cl)c(Cl)c1)c1nc2ccccc2c2[nH]c(C3CCCCC3)nc12
Activity [21]: Active

CCCC(CCC)c1nc2c(Nc3ccc(C#CCCCN)cc3)nc3ccccc3c2[nH]1
Activity [18]: Active

CCCC(CCC)c1nc2c(Nc3ccc(C#CCCCCCCCCN=C(N)N)cc3)nc3ccccc3c2[nH]1
fold change (FC) [20]: 9.5

Clc1ccc(Nc2nc3ccccc3c3nc(C4CCCCC4)oc23)cc1Cl
Activity [23]: Active | Activity [22]: Active

CCCC(CCC)c1nc2c(Nc3ccc(C#CCCCCCCCN)cc3)nc3ccccc3c2[nH]1
Activity [5]: Active | Activity [18]: Active | fold change (FC) [20]: 7.4

CCCC(CCC)c1nc2c(Nc3ccc(C#CCCCCN)cc3)nc3ccccc3c2[nH]1
Activity [5]: Active | Activity [18]: Active
